19 compounds from ChEMBL document CHEMBL5325412, “Privileged heterocycles for DNA-encoded library design and hit-to-lead optimization” (Eur J Med Chem, 2023) can be followed below.

≈ marks a conversion by molar mass, not a printed value.

In general, Kd refers to a measure of binding affinity in units of concentration. One may read the MIC as the lowest concentration found to suppress growth. Broadly, the IC50 is the concentration that inhibits the measured activity by half. A word on the Ki: it is a measure of affinity in units of concentration, obtained from inhibition or displacement. Usually solubility stands for the concentration that dissolves in the medium under given conditions. A high value points to a readily soluble substance.

Series [1] has as its target T1, Poly [ADP-ribose] polymerase tankyrase-1 (Homo sapiens, UniProt O95271).
T1 sequence (O95271 whole entry): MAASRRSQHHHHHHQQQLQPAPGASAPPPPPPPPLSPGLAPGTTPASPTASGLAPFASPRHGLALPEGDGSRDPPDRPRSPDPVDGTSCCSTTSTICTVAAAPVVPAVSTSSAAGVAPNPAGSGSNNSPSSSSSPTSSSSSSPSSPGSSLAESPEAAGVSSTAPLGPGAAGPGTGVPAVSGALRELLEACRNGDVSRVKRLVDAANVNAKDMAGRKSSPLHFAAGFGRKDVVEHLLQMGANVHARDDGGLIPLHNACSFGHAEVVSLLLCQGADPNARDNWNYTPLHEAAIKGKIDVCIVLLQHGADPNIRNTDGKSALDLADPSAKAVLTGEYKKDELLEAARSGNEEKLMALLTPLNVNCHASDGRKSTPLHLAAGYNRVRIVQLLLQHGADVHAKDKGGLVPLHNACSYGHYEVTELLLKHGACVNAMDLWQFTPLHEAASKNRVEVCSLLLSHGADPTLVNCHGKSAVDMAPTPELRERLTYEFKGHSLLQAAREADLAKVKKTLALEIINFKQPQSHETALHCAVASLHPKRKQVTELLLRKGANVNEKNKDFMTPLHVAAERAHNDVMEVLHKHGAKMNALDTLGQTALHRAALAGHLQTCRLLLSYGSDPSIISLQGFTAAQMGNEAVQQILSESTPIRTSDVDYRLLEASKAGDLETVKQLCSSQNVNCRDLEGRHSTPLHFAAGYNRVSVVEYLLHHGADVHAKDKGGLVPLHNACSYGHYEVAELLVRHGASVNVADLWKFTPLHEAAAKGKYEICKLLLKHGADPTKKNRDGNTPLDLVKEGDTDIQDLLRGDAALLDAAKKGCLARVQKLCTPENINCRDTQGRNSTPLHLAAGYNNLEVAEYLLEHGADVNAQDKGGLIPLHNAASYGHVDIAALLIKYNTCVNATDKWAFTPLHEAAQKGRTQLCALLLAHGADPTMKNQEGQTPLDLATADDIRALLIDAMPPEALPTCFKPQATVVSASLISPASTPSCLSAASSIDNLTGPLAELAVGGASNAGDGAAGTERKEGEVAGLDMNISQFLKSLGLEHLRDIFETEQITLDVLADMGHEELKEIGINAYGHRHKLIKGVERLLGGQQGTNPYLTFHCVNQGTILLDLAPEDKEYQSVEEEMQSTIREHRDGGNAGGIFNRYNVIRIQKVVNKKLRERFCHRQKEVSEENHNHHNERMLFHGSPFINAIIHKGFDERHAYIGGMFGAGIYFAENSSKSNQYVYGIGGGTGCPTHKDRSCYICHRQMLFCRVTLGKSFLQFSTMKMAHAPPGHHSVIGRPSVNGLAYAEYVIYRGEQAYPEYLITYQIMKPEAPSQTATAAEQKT
Briefly: Binding affinity to TNKS1 (unknown origin) assessed as dissociation constant.

A further series deals with Bacillus subtilis. The series is described as follows: Antibacterial activity against Bacillus subtilis ATCC 23857 assessed as bacterial growth inhibition incubated for 16 hrs by broth dilution assay. The series is classed as functional.
The next series concerns Escherichia coli. The series is described as follows: Antibacterial activity against Escherichia coli ATCC 25922 assessed as bacterial growth inhibition measured after 16 hrs by broth dilution assay. Format: functional. For orientation: Dilution methods test growth across graded concentrations, often in twofold steps.
The nature of series [2]: Inhibition of Hepatitis C virus genotype 1a NS4B. On the set-up: species or system Hepacivirus hominis.
For a further series, the target named is CREB-binding protein (Homo sapiens, UniProt Q92793). Briefly: Inhibition of N-terminal His-tagged CREBBP (unknown origin) expressed in Escherichia coli BL21 (DE3).
Sequence of CREB-binding protein (Q92793 whole entry): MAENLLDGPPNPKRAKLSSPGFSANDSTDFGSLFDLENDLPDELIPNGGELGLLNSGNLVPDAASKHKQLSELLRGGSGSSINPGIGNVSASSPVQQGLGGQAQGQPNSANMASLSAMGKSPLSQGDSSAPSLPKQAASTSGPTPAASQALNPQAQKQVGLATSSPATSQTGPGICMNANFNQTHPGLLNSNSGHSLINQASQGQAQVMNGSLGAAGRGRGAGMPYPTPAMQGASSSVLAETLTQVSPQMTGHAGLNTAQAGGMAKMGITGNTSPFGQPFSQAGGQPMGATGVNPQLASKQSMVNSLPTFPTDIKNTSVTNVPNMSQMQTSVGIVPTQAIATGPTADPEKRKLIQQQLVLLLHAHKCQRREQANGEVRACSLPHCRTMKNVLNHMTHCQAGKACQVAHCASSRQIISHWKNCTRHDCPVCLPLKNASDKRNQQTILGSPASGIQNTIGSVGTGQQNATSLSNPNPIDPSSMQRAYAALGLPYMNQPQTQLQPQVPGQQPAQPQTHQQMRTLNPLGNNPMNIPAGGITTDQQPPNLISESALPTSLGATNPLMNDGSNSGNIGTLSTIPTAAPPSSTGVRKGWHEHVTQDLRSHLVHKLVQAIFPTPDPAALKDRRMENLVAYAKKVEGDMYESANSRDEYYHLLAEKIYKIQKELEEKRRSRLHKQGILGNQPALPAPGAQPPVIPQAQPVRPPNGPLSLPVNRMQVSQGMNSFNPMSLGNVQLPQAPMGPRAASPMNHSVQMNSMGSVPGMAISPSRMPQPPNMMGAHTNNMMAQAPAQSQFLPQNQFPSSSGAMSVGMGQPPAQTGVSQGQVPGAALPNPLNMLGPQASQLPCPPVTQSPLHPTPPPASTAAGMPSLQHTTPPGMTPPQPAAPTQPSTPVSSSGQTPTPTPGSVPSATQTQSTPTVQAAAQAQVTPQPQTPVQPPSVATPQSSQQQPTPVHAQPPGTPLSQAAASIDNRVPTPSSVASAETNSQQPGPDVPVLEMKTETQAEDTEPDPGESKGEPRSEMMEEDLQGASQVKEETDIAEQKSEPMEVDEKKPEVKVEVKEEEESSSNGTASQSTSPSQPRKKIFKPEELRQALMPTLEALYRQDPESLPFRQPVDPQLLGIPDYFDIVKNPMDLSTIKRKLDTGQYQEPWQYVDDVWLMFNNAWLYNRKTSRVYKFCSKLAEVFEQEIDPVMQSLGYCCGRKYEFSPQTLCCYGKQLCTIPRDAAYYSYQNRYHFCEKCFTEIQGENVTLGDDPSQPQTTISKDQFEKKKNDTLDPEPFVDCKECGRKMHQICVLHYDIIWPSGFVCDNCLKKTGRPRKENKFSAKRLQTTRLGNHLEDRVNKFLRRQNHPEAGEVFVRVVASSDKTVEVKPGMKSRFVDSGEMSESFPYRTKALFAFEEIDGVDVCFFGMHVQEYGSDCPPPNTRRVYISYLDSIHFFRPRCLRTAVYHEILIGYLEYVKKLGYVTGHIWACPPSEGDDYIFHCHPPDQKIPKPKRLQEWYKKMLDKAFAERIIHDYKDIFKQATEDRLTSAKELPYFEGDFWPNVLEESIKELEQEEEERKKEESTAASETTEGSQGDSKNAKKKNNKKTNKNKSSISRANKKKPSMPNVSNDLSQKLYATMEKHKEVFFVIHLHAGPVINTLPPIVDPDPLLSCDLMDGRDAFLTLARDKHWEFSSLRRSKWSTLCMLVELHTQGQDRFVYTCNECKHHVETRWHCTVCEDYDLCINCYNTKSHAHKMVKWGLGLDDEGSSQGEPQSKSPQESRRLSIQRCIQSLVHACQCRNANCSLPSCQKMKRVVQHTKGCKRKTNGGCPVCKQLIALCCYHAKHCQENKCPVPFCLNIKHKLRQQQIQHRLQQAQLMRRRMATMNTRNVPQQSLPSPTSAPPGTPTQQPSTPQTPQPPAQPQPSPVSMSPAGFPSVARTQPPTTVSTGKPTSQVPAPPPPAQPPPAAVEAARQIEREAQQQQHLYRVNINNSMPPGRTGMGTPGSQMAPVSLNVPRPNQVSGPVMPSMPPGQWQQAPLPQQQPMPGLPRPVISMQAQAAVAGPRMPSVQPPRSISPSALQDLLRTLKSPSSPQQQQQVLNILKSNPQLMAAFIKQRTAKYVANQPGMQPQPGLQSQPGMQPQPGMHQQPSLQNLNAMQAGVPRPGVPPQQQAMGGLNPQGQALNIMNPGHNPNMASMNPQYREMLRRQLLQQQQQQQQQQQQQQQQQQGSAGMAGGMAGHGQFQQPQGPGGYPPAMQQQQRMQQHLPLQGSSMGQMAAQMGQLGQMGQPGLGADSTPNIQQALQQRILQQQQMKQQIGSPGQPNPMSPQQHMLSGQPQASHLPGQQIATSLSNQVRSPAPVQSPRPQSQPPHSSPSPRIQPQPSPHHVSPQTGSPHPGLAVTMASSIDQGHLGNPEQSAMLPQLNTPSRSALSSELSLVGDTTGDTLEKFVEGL
A short description of series [3]: Binding affinity to bacterial beta-lactamase OXA-48 expressed in Escherichia coli BL21 (DE3) using nitrocefin as substrate pre-incubated for 5 mins and measured for 20 mins by spectrometric analysis. Set-up: species or system Bacteria.
A further series has as its target Autotaxin (Homo sapiens, UniProt Q13822). Briefly: Inhibition of ATX (unknown origin).
Series [4] deals with Quadruplex DNA. Briefly: Binding affinity to c-MYC G4- quadruplex DNA Pu22 (unknown origin) assessed as inhibition constant by SPR analysis. The series is classed as nucleic-acid assay. Background: SPR reads the build-up and loss of mass on a sensor chip optically.
The nature of series [5]: Inhibition of MAPK p68 (unknown origin). On the set-up: species or system Homo sapiens.
A short description of series [6]: Binding affinity to Peptoid-inspired conformationally constrained oligomer (unknown origin) assessed as dissociation constant.
The target of series [7] is Quadruplex DNA. The series is described as follows: Binding affinity to c-MYC G4 quadruplex DNA (unknown origin) assessed as dissociation constant by fluorescence titration based analysis. Format: nucleic-acid assay.
Another series concerns the target Carbonic anhydrase 9 (Homo sapiens, UniProt Q16790). The series is described as follows: Inhibition of human recombinant carbonic anhydrase IX.
A further series concerns the target Prothrombin (Homo sapiens, UniProt P00734). Briefly: Binding affinity to thrombin (unknown origin) assessed as inhibition constant.
Series [8] concerns the target Mitogen-activated protein kinase 10 (Homo sapiens, UniProt P53779). The series is described as follows: Binding affinity to JNK3 (unknown origin) assessed as inhibition constant.
The target of series [9] is Mitogen-activated protein kinase 8 (Homo sapiens, UniProt P45983). The series is described as follows: Binding affinity to JNK1 (unknown origin) assessed as dissociation constant.
Sequence of Mitogen-activated protein kinase 8 (P45983 whole entry): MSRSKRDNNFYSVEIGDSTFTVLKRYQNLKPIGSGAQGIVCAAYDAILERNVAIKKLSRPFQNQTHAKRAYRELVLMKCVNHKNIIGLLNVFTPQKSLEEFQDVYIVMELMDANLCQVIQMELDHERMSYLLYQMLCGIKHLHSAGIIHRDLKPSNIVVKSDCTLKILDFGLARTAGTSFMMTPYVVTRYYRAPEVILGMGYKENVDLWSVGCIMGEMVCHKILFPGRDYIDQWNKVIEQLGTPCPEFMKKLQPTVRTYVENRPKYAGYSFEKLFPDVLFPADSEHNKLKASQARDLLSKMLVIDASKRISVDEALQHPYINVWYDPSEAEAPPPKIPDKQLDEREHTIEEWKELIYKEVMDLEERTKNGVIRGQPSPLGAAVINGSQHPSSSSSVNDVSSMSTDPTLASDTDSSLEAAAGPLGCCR
In a further series the target is Albumin (Homo sapiens, UniProt P02768). Briefly: Binding affinity to human serum albumin by fluorescence polarization assay.
Sequence of Albumin (P02768 whole entry): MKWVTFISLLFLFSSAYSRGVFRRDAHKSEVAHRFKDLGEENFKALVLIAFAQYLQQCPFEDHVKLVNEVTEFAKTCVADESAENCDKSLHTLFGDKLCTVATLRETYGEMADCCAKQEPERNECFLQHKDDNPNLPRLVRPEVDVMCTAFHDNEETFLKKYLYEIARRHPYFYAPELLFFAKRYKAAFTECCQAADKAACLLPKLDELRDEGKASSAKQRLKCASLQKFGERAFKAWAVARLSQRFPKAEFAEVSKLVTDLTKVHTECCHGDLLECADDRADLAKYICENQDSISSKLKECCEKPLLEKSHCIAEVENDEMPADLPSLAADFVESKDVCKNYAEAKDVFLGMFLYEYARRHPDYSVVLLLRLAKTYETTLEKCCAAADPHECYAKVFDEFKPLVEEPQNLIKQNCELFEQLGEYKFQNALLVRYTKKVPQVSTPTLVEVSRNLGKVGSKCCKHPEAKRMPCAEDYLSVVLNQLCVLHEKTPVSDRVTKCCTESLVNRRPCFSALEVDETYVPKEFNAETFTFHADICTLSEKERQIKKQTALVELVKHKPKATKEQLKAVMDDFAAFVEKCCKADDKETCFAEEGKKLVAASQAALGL
A short description of series [10]: Solubility of the compound. Format: physicochemical.
Series [11] addresses T2, 2',5'-phosphodiesterase 12 (Homo sapiens, UniProt Q6L8Q7).
T2 sequence (Q6L8Q7 whole entry): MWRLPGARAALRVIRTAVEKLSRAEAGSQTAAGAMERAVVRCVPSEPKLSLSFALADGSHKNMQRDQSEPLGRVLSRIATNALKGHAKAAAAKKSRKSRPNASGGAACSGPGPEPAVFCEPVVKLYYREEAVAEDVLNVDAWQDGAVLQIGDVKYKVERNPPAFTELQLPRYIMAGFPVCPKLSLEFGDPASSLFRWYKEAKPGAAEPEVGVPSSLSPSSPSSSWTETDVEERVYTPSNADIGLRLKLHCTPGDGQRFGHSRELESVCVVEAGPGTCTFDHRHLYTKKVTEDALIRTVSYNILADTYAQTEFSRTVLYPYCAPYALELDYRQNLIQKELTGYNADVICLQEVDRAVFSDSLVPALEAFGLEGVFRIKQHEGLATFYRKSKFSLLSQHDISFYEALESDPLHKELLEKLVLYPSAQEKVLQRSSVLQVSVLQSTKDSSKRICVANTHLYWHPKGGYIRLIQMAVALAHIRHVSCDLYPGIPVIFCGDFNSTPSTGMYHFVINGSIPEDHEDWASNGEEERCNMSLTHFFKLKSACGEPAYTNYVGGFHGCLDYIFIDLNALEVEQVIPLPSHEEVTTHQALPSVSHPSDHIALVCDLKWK
Briefly: Binding affinity to PDE12 (unknown origin) (17 to 609 residues) assessed as inhibition constant by AMP-glo reagent based assay.

Series [12] has as its target T3, Proteinase-activated receptor 2 (Homo sapiens, UniProt P55085).
T3 sequence (P55085 whole entry): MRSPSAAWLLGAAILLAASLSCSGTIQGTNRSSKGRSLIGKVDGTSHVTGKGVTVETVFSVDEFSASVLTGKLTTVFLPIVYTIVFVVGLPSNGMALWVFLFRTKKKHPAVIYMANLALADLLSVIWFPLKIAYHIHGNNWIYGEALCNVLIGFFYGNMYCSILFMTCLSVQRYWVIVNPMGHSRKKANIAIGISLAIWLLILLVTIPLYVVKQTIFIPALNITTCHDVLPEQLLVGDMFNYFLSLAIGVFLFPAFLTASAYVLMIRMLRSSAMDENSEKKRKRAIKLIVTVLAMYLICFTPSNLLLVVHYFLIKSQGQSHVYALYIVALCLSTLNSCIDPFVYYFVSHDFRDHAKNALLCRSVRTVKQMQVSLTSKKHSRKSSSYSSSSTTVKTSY
Briefly: Antagonist activity at PAR2 (unknown origin) expressed in human 1321N1 cells. The series is classed as cell-based.

Sequence of Mitogen-activated protein kinase 10 (P53779 whole entry): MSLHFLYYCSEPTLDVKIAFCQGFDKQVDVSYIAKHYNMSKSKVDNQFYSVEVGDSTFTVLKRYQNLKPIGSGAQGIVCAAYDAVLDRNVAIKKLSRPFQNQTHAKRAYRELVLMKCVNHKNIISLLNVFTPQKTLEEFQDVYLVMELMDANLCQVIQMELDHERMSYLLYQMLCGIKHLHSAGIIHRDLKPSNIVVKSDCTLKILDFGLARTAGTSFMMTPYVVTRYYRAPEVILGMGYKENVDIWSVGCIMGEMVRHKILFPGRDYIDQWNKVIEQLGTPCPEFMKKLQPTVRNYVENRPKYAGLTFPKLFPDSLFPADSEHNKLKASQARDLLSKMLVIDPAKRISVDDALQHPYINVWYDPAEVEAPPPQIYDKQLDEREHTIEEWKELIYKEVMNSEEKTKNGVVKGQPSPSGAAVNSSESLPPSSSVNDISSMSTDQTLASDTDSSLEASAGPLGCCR

As for `Cc1cn(CC(=O)N[C@@H](CCCCn2cc(-c3ccncc3F)nn2)C(N)=O)c(=O)[nH]c1=O`, the Kd in [1] was 15 nM.
Take `O=C(O)c1cn(C2CC2)c2nc(N3CCNCC3)c(F)cc2c1=O`: the figures for the MIC in the series on Bacillus subtilis and with Escherichia coli were 0.063 µg/mL (≈ 0.19 µM) and 0.016 µg/mL (≈ 0.0481 µM), respectively.
`O=C(c1ccc2[nH]ccc2c1)N1CCC2(CCCN(c3ncc(-c4ccccc4)c(-c4ccc(Cl)cc4)n3)C2)CC1` displayed an IC50 in [2] of 42.1 nM.
Consider `C[C@@H]1CC(=O)Cc2cccc(C(=O)NCCNC(=O)CSC(=S)c3ccccc3)c2N1`, for which, at CREB-binding protein, the IC50 came to 17000 nM.
`CCOc1ccccc1N1CCN(c2ncnc(N3CCC(S(=O)(=O)O)CC3)n2)CC1`: the inhibition constant (Ki) in [3] was determined as 260 nM.
Turning to `O=C(c1ccccc1)N1CCC2(CCCN(c3ncc(-c4ccccc4)c(-c4ccc(Cl)cc4)n3)C2)CC1`, the IC50 in [2] worked out at 45.8 nM.
With `NC(=O)CN1CN(c2ccccc2)C2(CCN(C(=O)CCc3ccc(Cl)cc3Cl)CC2)C1=O`, the IC50 at Autotaxin is 2800 nM.
For `Cc1cnccc1N1CCN(c2nccc3c2nc(-c2c[nH]c4ccncc24)n3C)CC1`, the Ki at Quadruplex DNA [4] turned out to be 328 nM.
`COc1ccc(Nc2nc(NCCc3ccccc3F)nc(Nc3ccc4ncccc4c3)n2)cc1OC` registered an IC50 in [5] of 2100 nM.
Take `NC(=O)c1coc(CN(Cc2ccc3c(c2)OCO3)C(=O)c2coc(CN(Cc3ccc4c(c3)OCO4)C(=O)c3ncc(CCl)o3)n2)n1`: in [6], the Kd came to 30 nM.
As to `CNC(=O)CN(Cc1ccc(OCC(=O)NCc2nc3ccccc3c(=O)[nH]2)c(Cl)c1)Cc1cccn1C`, the dissociation constant (Kd) at Quadruplex DNA [7] came to 1050 nM.
On to `CNC(=O)[C@@H]1[C@@H](c2ccc(-c3ccc(S(N)(=O)=O)cc3)cc2)CN1Cc1ccc(O)c2ncccc12`, for which, on Carbonic anhydrase 9, the IC50 came out at 20.1 nM.
Take `CNC(=O)[C@@H]1CN(C(=O)[C@@H](Cc2ccccc2CNC(=N)N)NC(=O)N(C)C2CCOc3ccccc32)C[C@H]1c1ccc(OC)cc1` (stereo partly specified): the Ki at Prothrombin was determined as 1 nM.
Take `CCn1c(-c2ccccc2-c2ccc(C)cc2C)nc2cc(C(=O)NC)ccc21`: the Ki in [8] stood at 1.2 nM.
Turning to `O=C(/C=C/C(=O)c1ccc(F)c(F)c1)NCCOCCOCCNC(=O)c1cccnc1Oc1ccccc1`, the Kd in series [9] is 1000 nM.
`NCCOCCOCCNC(=O)c1cccc(NC(=O)OC2CCN(C(=O)c3ccc(-c4nc5ccccc5[nH]4)cc3)CC2)c1` yielded a Ki on Albumin of 49.7 nM. The compound further showed a solubility in series [10] of 54 µg/mL (≈ 87.8 µM).
With `Cn1c(-c2c[nH]c3cc(C#N)ccc23)nc2ccc(C(=O)N3CCOC(c4ccccc4)C3CO)cc21` (stereo unspecified), the Ki in [11] worked out at 17.5 nM.
On to `CCOc1ccccc1N1CCN(c2ncnc(N3CCC(C(=O)O)CC3)n2)CC1`, for which, in [3], the Ki was 530 nM.
On to `CC(C1CCCCC1)n1c(-c2cc3c(cc2Br)OCO3)nc2cc(C(=O)Nc3ccc(C#N)cc3)ccc21` (stereo unspecified), for which, in [12], inhibition was half-maximal at 23 nM (IC50).
